From PubChem BioAssay (NCI)
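Protocol summary: plate cells (96-well), add compound at 5 concentrations, incubate 48 h, interpolate endpoints linearly. GI50 = concentration required for 50% inhibition of growth. TGI denotes the concentration required for complete inhibition of growth.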

How the values were obtained:
Test in all cases: inhibition of tumour cell growth, NCI panel, 48 h
MCF7 breast = test system: MCF7 breast
CCRF-CEM leukemia = test system: CCRF-CEM leukemia
HCC-2998 colon = test system: HCC-2998 colon
SF-539 CNS = test system: SF-539 CNS
MALME-3M melanoma = test system: MALME-3M melanoma
T-47D breast = test system: T-47D breast
OVCAR-4 ovarian = test system: OVCAR-4 ovarian
ACHN renal = test system: ACHN renal
SF-295 CNS = test system: SF-295 CNS
SW-620 colon = test system: SW-620 colon
IGROV1 ovarian = test system: IGROV1 ovarian
SF-268 CNS = test system: SF-268 CNS
SN12C renal = test system: SN12C renal
SR leukemia = test system: SR leukemia
SK-OV-3 ovarian = test system: SK-OV-3 ovarian
A549 NSCLC = test system: A549 NSCLC
NCI-H23 lung = test system: NCI-H23 lung
RXF 393 renal = test system: RXF 393 renal
K-562 leukemia = test system: K-562 leukemia
SNB-75 CNS = test system: SNB-75 CNS
CAKI-1 renal = test system: CAKI-1 renal
HT29 colon = test system: HT29 colon
HOP-62 NSCLC = test system: HOP-62 NSCLC
EKVX NSCLC = test system: EKVX NSCLC
MDA-MB-468 breast = test system: MDA-MB-468 breast
SK-MEL-5 melanoma = test system: SK-MEL-5 melanoma
NCI/ADR-RES ovarian = test system: NCI/ADR-RES ovarian
MOLT-4 leukemia = test system: MOLT-4 leukemia
MDA-MB-435 = test system: MDA-MB-435
OVCAR-5 ovarian = test system: OVCAR-5 ovarian

**Q.** What does the source list for COc1cccc(/C=C/c2nc3ccccc3c(=O)n2CC(=O)Nc2ccccc2)c1?
**A.** GI50 (MCF7 breast): 27 µM; TGI (MCF7 breast): > 100 µM; GI50 (CCRF-CEM leukemia): > 100 µM; TGI (CCRF-CEM leukemia): > 100 µM; GI50 (HCC-2998 colon): > 100 µM; TGI (HCC-2998 colon): > 100 µM; GI50 (SF-539 CNS): 7.51 µM; TGI (SF-539 CNS): 28.5 µM; GI50 (MALME-3M melanoma): 12.1 µM; TGI (MALME-3M melanoma): 65.7 µM; GI50 (T-47D breast): 2.76 µM; TGI (T-47D breast): 18.6 µM; GI50 (OVCAR-4 ovarian): 6.87 µM; TGI (OVCAR-4 ovarian): > 100 µM; GI50 (ACHN renal): 3.47 µM; TGI (ACHN renal): 12.5 µM; GI50 (SF-295 CNS): 5.23 µM; TGI (SF-295 CNS): 28.6 µM; GI50 (SW-620 colon): > 100 µM; TGI (SW-620 colon): > 100 µM; GI50 (IGROV1 ovarian): 39.1 µM; TGI (IGROV1 ovarian): > 100 µM; GI50 (SF-268 CNS): 36.8 µM; TGI (SF-268 CNS): > 100 µM; GI50 (SN12C renal): 6.58 µM; TGI (SN12C renal): > 100 µM; GI50 (SR leukemia): > 100 µM; TGI (SR leukemia): > 100 µM; GI50 (SK-OV-3 ovarian): 5.87 µM; TGI (SK-OV-3 ovarian): 40.9 µM; GI50 (A549 NSCLC): 3.81 µM; TGI (A549 NSCLC): > 100 µM; GI50 (NCI-H23 lung): 8.91 µM; TGI (NCI-H23 lung): 49.3 µM; GI50 (RXF 393 renal): 4.23 µM; TGI (RXF 393 renal): 50.9 µM; GI50 (K-562 leukemia): > 100 µM; TGI (K-562 leukemia): > 100 µM; GI50 (SNB-75 CNS): 3.15 µM; TGI (SNB-75 CNS): 18.1 µM; GI50 (CAKI-1 renal): 4.31 µM; TGI (CAKI-1 renal): 30.1 µM; GI50 (HT29 colon): > 100 µM; TGI (HT29 colon): > 100 µM; GI50 (HOP-62 NSCLC): 3.89 µM; TGI (HOP-62 NSCLC): 14.4 µM; GI50 (EKVX NSCLC): > 100 µM; TGI (EKVX NSCLC): > 100 µM; GI50 (MDA-MB-468 breast): 9.17 µM; TGI (MDA-MB-468 breast): > 100 µM; GI50 (SK-MEL-5 melanoma): 59.3 µM; TGI (SK-MEL-5 melanoma): > 100 µM; GI50 (NCI/ADR-RES ovarian): 7.72 µM; TGI (NCI/ADR-RES ovarian): 64.9 µM; GI50 (MOLT-4 leukemia): > 100 µM; TGI (MOLT-4 leukemia): > 100 µM; GI50 (MDA-MB-435): > 100 µM; TGI (MDA-MB-435): > 100 µM; GI50 (OVCAR-5 ovarian): 19.3 µM
